# Test results reported in EP2272817A1, “PAI-1 INHIBITOR” (Institute of Medicinal Molecular Design, Inc., priority 2008, dated 2009).
# Target: recombinant human PAI-1 (Homo sapiens, UniProt P05121)
# Experiment: Test Example 2: Human PAI-1 Inhibitory Activity (pH 7.4 HEPES buffer, 10 minutes incubation with two-chain tPA)
# Type: biochemical
# Set-up: purchased Molecular Innovations, Inc
# Conditions: read-out: Inhibition Rate of PAI-1 Activity (%)
# Description: 0.1 M HEPES, 0.1 M NaCl. 1 mM EDTA. 0.1 % Polyethylene glycol 8,000 (Hampton Research Corporation),
# 2 mM Dimethyldecylphoshine oxide [Apo-10] (Fluka Corporation)
# Sequence of recombinant human PAI-1 (P05121 24-402): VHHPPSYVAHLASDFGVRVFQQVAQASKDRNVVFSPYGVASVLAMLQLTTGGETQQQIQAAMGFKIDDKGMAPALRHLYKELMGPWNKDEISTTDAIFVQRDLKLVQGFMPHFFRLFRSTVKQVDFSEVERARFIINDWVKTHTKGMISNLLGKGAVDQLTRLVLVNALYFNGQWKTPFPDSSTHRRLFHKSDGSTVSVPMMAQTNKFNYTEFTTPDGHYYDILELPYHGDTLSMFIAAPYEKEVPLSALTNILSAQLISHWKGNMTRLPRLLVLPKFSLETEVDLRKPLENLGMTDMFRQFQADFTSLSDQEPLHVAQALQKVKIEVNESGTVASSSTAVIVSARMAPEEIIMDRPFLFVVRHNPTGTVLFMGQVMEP
SMILES,inhibition at 0.1 µM,inhibition at 0.3 µM,inhibition at 1 µM,inhibition at 3 µM,inhibition at 10 µM,inhibition at 25 µM
CCCCC(Oc1cc(Oc2ccc(OC(F)(F)F)cc2)ccc1Oc1ccc(C(C)(C)C)cc1)C(=O)O (stereo not drawn) [Compound 312],17%,24%,87%,94%,–,–
CCCCCOc1cc(-c2cccc(OC(F)(F)F)c2)ccc1N(CCCCc1ccccc1)C(=O)C(=O)O [Compound 393],8%,19%,75%,97%,–,–
CCCCCOc1cc(Oc2ccc(OC(F)(F)F)cc2)ccc1N(CCCCc1ccccc1)C(=O)C(=O)O [Compound 362],11%,18%,61%,> 99%,–,–
O=C(O)C(=O)N(CCCCc1ccccc1)c1cc(-c2ccc(OC(F)(F)F)cc2)ccc1OCCC(F)(F)F [Compound 383],2%,6%,32%,98%,–,–
CC(C)(C)c1ccc(Oc2cc(-c3ccccc3OC(F)(F)F)ccc2OCC(=O)O)cc1 [Compound 456],7%,13%,70%,98%,–,–
CCCCN(CC(=O)O)c1cc(-c2ccc(OC(F)(F)F)cc2)ccc1OCCCCc1ccccc1 [Compound 433],13%,6%,41%,98%,–,–
CCCCC(Oc1cc(-c2ccc(OC(F)(F)F)cc2)ccc1Oc1ccc(C(C)(C)C)cc1)C(=O)O (stereo not drawn) [Compound 303],0%,13%,87%,94%,–,–
CCCCCOc1cc(-c2ccc(C(F)(F)F)cc2)ccc1N(CCCCc1ccccc1)C(=O)C(=O)O [Compound 392],7%,14%,77%,> 99%,–,–
CC(C)(C)c1ccc(Oc2cc(-c3ccc(C(C)(C)C)cc3)ccc2OCC(=O)O)cc1 [Compound 446],3%,13%,84%,> 99%,–,–
CCCCCOc1cc(-c2ccc(OC(F)(F)F)cc2)ccc1N(CCCCc1ccccc1)C(=O)C(=O)O [Compound 367],10%,26%,52%,94%,–,–
O=C(O)C(=O)N(CCCCc1ccccc1)c1cc(-c2ccc(OC(F)(F)F)cc2)ccc1OCCCCC(F)(F)F [Compound 381],12%,13%,48%,> 99%,–,–
CC(C)c1ccc(Oc2cc(-c3ccc(OC(F)(F)F)cc3)ccc2OCC(=O)O)cc1 [Compound 333],4%,10%,28%,91%,–,–
CC(C)(C)c1cccc(Oc2ccc(-c3ccc(OC(F)(F)F)cc3)cc2CCC(=O)O)c1 [Compound 438],13%,11%,50%,> 99%,–,–
CCCCCOc1ccc(-c2ccc(OC(F)(F)F)cc2)cc1N(CCCCC)C(=O)C(=O)O [Compound 366],8%,24%,46%,96%,–,–
O=C(O)c1cc(-c2ccc(OC(F)(F)F)cc2)ccc1OCc1ccccc1 [Compound 401],–,–,–,15%,17%,53%
CCCCC(Oc1cc(Oc2ccc(C(C)(C)C)cc2)cc(-c2ccc(OC(F)(F)F)cc2)c1)C(=O)O (stereo not drawn) [Compound 426],10%,29%,95%,97%,–,–
O=C(O)C(=O)N(CCCCc1ccccc1)c1cc(-c2ccc(OC(F)(F)F)cc2)ccc1OCCCCc1ccccc1 [Compound 354],5%,10%,91%,89%,–,–
CSc1ccc(-c2ccc(OCC(=O)O)c(Oc3ccc(C(C)(C)C)cc3)c2)cc1 [Compound 448],4%,11%,39%,> 99%,–,–
CC(C)(C)c1ccc(Oc2cc(-c3ccc(OC(F)(F)F)cc3)ccc2NCC(=O)O)cc1 [Compound 442],1%,4%,83%,> 99%,–,–
CC(C)(C)c1ccc(Oc2ccc(-c3cccc(OC(F)(F)F)c3)cc2OCC(=O)O)cc1 [Compound 329],6%,11%,28%,98%,–,–
CCCCC(Oc1cc(-c2ccc(OC(F)(F)F)cc2)ccc1OCCCCc1ccccc1)C(=O)O (stereo not drawn) [Compound 306],0%,0%,72%,97%,–,–
CC(C)(C)c1ccc(Oc2ccc(-c3cccc(C(F)(F)F)c3)cc2OCC(=O)O)cc1 [Compound 314],0%,5%,22%,93%,–,–

# Further lines, results first:
inhibition at 0.1 µM,inhibition at 0.3 µM,inhibition at 1 µM,inhibition at 3 µM,inhibition at 10 µM,inhibition at 25 µM,SMILES
0%,2%,81%,> 99%,–,–,CC(C)(C)c1ccc(Cc2cc(-c3ccc(OC(F)(F)F)cc3)ccc2OCC(=O)O)cc1 [Compound 550]
11%,68%,> 99%,> 99%,–,–,CCCCc1ccc(Oc2cc(-c3ccc(OC(F)(F)F)cc3)ccc2/C=C/C(=O)O)cc1 [Compound 511]
23%,22%,84%,> 99%,–,–,CC(C)(C)c1ccc(C(=O)c2cc(-c3ccc(OC(F)(F)F)cc3)ccc2OCC(=O)O)cc1 [Compound 549]
5%,20%,> 99%,> 99%,–,–,O=C(O)COc1ccc(-c2ccc(OC(F)(F)F)cc2)cc1Oc1ccc(OCc2ccccc2)cc1 [Compound 492]
0%,6%,11%,69%,–,–,CC(C)(C)c1ccc(Oc2cc(-c3cccc([N+](=O)[O-])c3)ccc2OCC(=O)O)cc1 [Compound 485]
0%,1%,73%,94%,–,–,O=C(O)/C=C/c1cc(-c2ccc(OC(F)(F)F)cc2)ccc1OCCCCCOc1ccc(-c2ccc(OC(F)(F)F)cc2)cc1/C=C/C(=O)O [Compound 543]
3%,24%,> 99%,> 99%,–,–,CC(C)(C)c1ccc(Oc2cc(-c3ccc(C(C)(C)C)cc3)ccc2CCC(=O)O)cc1 [Compound 497]
0%,8%,84%,> 99%,–,–,CC(C)c1ccc(Oc2cc(-c3ccc(OC(F)(F)F)cc3)ccc2CCC(=O)O)cc1 [Compound 510]
18%,41%,96%,98%,–,–,CCCCc1ccc(Oc2cc(-c3ccc(OC(F)(F)F)cc3)ccc2CCC(=O)O)cc1 [Compound 512]
0%,10%,36%,91%,–,–,O=C(O)CCc1ccc(-c2ccc(OC(F)(F)F)cc2)cc1OCCCOCc1ccccc1 [Compound 488]
16%,57%,94%,93%,–,–,CCCCC(C(=O)O)N(Cc1ccc(C(C)(C)C)cc1)c1ccc(-c2ccc(OC(F)(F)F)cc2)cc1 (stereo not drawn) [Compound 642]
21%,22%,96%,> 99%,–,–,CC(C)(C)c1cccc(Oc2cc(-c3cccc(OC(F)(F)F)c3)ccc2/C=C/C(=O)O)c1 [Compound 514]
19%,17%,93%,96%,–,–,CCCCCOc1ccc(-c2ccc(C)cc2)cc1N(CCCCc1ccccc1)C(=O)C(=O)O [Compound 677]
–,–,7%,25%,84%,> 99%,CC(C)(C)c1ccc(N(Cc2ccc(-c3ccccc3)cc2)C(=O)C(=O)O)cc1 [Compound 612]
9%,53%,95%,95%,–,–,CCCCC(C(=O)O)N(Cc1ccc(C(C)(C)C)cc1)c1cccc(-c2ccc(OC(F)(F)F)cc2)c1 (stereo not drawn) [Compound 641]
–,–,40%,> 99%,> 99%,90%,CC(C)(C)c1ccc(CN(C(=O)C(=O)O)c2ccc(N3CCN(c4ccc(OC(F)(F)F)cc4)CC3)cc2)cc1 [Compound 628]
0%,8%,76%,> 99%,–,–,CC(C)(C)c1ccc(Oc2cc(-c3cc(Cl)ccc3Cl)ccc2/C=C/C(=O)O)cc1 [Compound 483]
3%,16%,87%,> 99%,–,–,CC(C)(C)c1ccc(Oc2cc(-c3ccc4ccccc4c3)ccc2CCC(=O)O)cc1 [Compound 470]
0%,7%,73%,> 99%,–,–,CC(C)(C)c1ccc(Oc2cc(-c3cc(Cl)ccc3Cl)ccc2CCC(=O)O)cc1 [Compound 484]
3%,0%,44%,97%,–,–,CCCCCOc1ccc(-c2ccc(OC(F)(F)F)cc2)cc1N(CCCOCc1ccccc1)C(=O)C(=O)O [Compound 655]
0%,3%,65%,> 99%,–,–,O=C(O)CCc1ccc(-c2ccc(OC(F)(F)F)cc2)cc1Oc1ccc2ccccc2c1 [Compound 476]
